# Values quoted from earlier work, collected in patent US5028528A, “Analytical element for theophylline determination using buffer in a subbing zone” (Eastman Kodak Company, priority 1988, dated 1991).
# Conditions: in a patient
smiles,measurement,value
Cn1c(=O)c2[nH]cnc2n(C)c1=O [Theophylline],therapeutic range of use,1 to 2 mg/dL
